Values quoted from earlier work in patent EP0420232B1, “Water soluble derivatives of glycoside bioflavonoids, processes for their preparation and related pharmaceutical compositions” (EUROPEAN PHARMACY Srl, priority 1989, dated 1991).

Assays:
[1] = background statement
[2] = at room temperature; background statement

| Compound | toxicity [1] | solubility in water [2] |
| --- | --- | --- |
| COc1ccc(-c2cc(=O)c3c(O)cc(O[C@@H]4O[C@H](CO[C@@H]5O[C@@H](C)[C@H](O)[C@@H](O)[C@H]5O)[C@@H](O)[C@H](O)[C@H]4O)cc3o2)cc1O [diosmin, 7-ramnoglycoside of 5,7,3'-trihydroxy-4'-methoxyflavone] | devoid of toxicity |  |
| C[C@@H]1O[C@@H](OC[C@H]2O[C@@H](Oc3c(-c4ccc(O)c(O)c4)oc4cc(O)cc(O)c4c3=O)[C@H](O)[C@@H](O)[C@@H]2O)[C@H](O)[C@H](O)[C@H]1O [rutin, 3-rutinoside of 3, 3', 4', 5,7-penthahydroxyflavone] | devoid of toxicity | very poorly soluble |
